Laboratory results from ChEMBL document CHEMBL3390848, “Affinity selection and sequence-activity relationships of HIV-1 membrane fusion inhibitors directed at the drug-resistant variants” (Medchemcomm, 2010).
pEC50: −log10 of the molar value. Residues, ends and D or L forms follow the SMILES beside them.

How the values were obtained:
[1] = tested on: Human immunodeficiency virus 1; assay: Antiviral activity against HIV1 NL4-3 harboring gp41 D36G mutant infected in human HeLa cells expressing CD4-LTR-beta-gal assessed as inhibition of viral replication after 48 hrs by MAGI assay; assay type: functional, organism-based
[2] = tested on: Human immunodeficiency virus 1; assay: Thermal stability of HIV1 envelope glycoprotein gp41 His-tagged N-terminal heptad repeat N36-drug complex assessed as thermal unfolding transition state by measuring molar ellipticity at 4 to 90 degC by circular dichroic spectra analysis
[3] = tested on: Human immunodeficiency virus 1; assay: Binding affinity to HIV1 His-tagged N-terminal heptad repeat of envelope glycoprotein gp41 assessed as recovery of N36-drug complex after 2 hrs by LC-MS analysis; design: concentration or dose not given beside the values

| SMILES | pEC50 [1] | Tm [2] [°C] | Activity [3] [%] |
| --- | --- | --- | --- |
| CC[C@H](C)[C@H](NC(=O)[C@H](CCC(=O)O)NC(=O)[C@H](CCC(=O)O)NC(=O)[C@H](CO)NC(=O)[C@H](CCCCN)NC(=O)[C@H](CCCCN)NC(=O)[C@@H](NC(=O)[C@H](CC(C)C)NC(=O)[C@H](CCC(=O)O)NC(=O)[C@H](CCC(=O)O)NC(=O)[C@@H](NC(=O)[C@H](CCCCN)NC(=O)[C@H](CCCCN)NC(=O)[C@@H](NC(=O)[C@H](Cc1ccc(O)cc1)NC(=O)[C@H](CCC(=O)O)NC(=O)[C@H](CCC(=O)O)NC(=O)[C@@H](NC(=O)[C@H](CCCCN)NC(=O)[C@H](CCCCN)NC(=O)[C@H](CC(=O)O)NC(=O)[C@H](Cc1c[nH]c2ccccc12)NC(=O)[C@H](CCC(=O)O)NC(=O)[C@H](CCC(=O)O)NC(=O)[C@H](Cc1c[nH]c2ccccc12)NC(C)=O)[C@@H](C)CC)[C@@H](C)O)[C@@H](C)CC)[C@@H](C)CC)C(=O)N[C@@H](CCC(N)=O)C(=O)N[C@@H](CCCCN)C(=O)N[C@@H](CCCCN)C(=O)N[C@@H](CC(N)=O)C(=O)N[C@@H](CCC(=O)O)C(=O)N[C@@H](CCC(=O)O)C(=O)N[C@@H](CCC(=O)O)C(=O)N[C@@H](CC(C)C)C(=O)N[C@@H](CCCCN)C(=O)N[C@@H](CCCCN)C(N)=O (Ac-WEEWDKKIEEYTKKIEELIKKSEEIQKKNEEELKK-NH2) | 8.54 | 79.7 | 8.2 |
| CC[C@H](C)[C@H](NC(=O)[C@H](CC(C)C)NC(=O)[C@H](CCC(=O)O)NC(=O)[C@H](CCC(=O)O)NC(=O)[C@@H](NC(=O)[C@H](CCCCN)NC(=O)[C@H](CCCCN)NC(=O)[C@@H](NC(=O)[C@H](Cc1ccc(O)cc1)NC(=O)[C@H](CCC(=O)O)NC(=O)[C@H](CCC(=O)O)NC(=O)[C@@H](NC(=O)[C@H](CCCCN)NC(=O)[C@H](CCCCN)NC(=O)[C@H](CC(=O)O)NC(=O)[C@H](Cc1c[nH]c2ccccc12)NC(=O)[C@H](CCC(=O)O)NC(=O)[C@H](CCC(=O)O)NC(=O)[C@H](Cc1c[nH]c2ccccc12)NC(C)=O)[C@@H](C)CC)[C@@H](C)O)[C@@H](C)CC)C(=O)N[C@@H](CCCCN)C(=O)N[C@@H](CCCCN)C(=O)N[C@@H](CO)C(=O)N[C@@H](CCC(=O)O)C(=O)N[C@@H](CCC(=O)O)C(=O)N[C@@H](Cc1ccccc1)C(=O)N[C@@H](CCC(N)=O)C(=O)N[C@@H](CCCCN)C(=O)N[C@@H](CCCCN)C(=O)N[C@@H](CC(N)=O)C(=O)N[C@@H](CCC(=O)O)C(=O)N[C@@H](CCC(=O)O)C(=O)N[C@@H](CCC(=O)O)C(=O)N[C@@H](CC(C)C)C(=O)N[C@@H](CCCCN)C(=O)N[C@@H](CCCCN)C(N)=O (Ac-WEEWDKKIEEYTKKIEELIKKSEEFQKKNEEELKK-NH2) | 8.59 | 76.7 | 5.7 |
| CC[C@H](C)[C@H](NC(=O)[C@H](CC(C)C)NC(=O)[C@H](CCC(=O)O)NC(=O)[C@H](CCC(=O)O)NC(=O)[C@@H](NC(=O)[C@H](CCCCN)NC(=O)[C@H](CCCCN)NC(=O)[C@@H](NC(=O)[C@H](Cc1ccc(O)cc1)NC(=O)[C@H](CCC(=O)O)NC(=O)[C@H](CCC(=O)O)NC(=O)[C@@H](NC(=O)[C@H](CCCCN)NC(=O)[C@H](CCCCN)NC(=O)[C@H](CC(=O)O)NC(=O)[C@H](Cc1c[nH]c2ccccc12)NC(=O)[C@H](CCC(=O)O)NC(=O)[C@H](CCC(=O)O)NC(=O)[C@H](Cc1c[nH]c2ccccc12)NC(C)=O)[C@@H](C)CC)[C@@H](C)O)[C@@H](C)CC)C(=O)N[C@@H](CCCCN)C(=O)N[C@@H](CCCCN)C(=O)N[C@@H](CO)C(=O)N[C@@H](CCC(=O)O)C(=O)N[C@@H](CCC(=O)O)C(=O)N1CCC[C@H]1C(=O)N[C@@H](CCC(N)=O)C(=O)N[C@@H](CCCCN)C(=O)N[C@@H](CCCCN)C(=O)N[C@@H](CC(N)=O)C(=O)N[C@@H](CCC(=O)O)C(=O)N[C@@H](CCC(=O)O)C(=O)N[C@@H](CCC(=O)O)C(=O)N[C@@H](CC(C)C)C(=O)N[C@@H](CCCCN)C(=O)N[C@@H](CCCCN)C(N)=O (Ac-WEEWDKKIEEYTKKIEELIKKSEEPQKKNEEELKK-NH2) | 7.24 | 60.2 | 0 |
| CC[C@H](C)[C@H](NC(=O)[C@H](CC(C)C)NC(=O)[C@H](CCC(=O)O)NC(=O)[C@H](CCC(=O)O)NC(=O)[C@@H](NC(=O)[C@H](CCCCN)NC(=O)[C@H](CCCCN)NC(=O)[C@@H](NC(=O)[C@H](Cc1ccc(O)cc1)NC(=O)[C@H](CCC(=O)O)NC(=O)[C@H](CCC(=O)O)NC(=O)[C@@H](NC(=O)[C@H](CCCCN)NC(=O)[C@H](CCCCN)NC(=O)[C@H](CC(=O)O)NC(=O)[C@H](Cc1c[nH]c2ccccc12)NC(=O)[C@H](CCC(=O)O)NC(=O)[C@H](CCC(=O)O)NC(=O)[C@H](Cc1c[nH]c2ccccc12)NC(C)=O)[C@@H](C)CC)[C@@H](C)O)[C@@H](C)CC)C(=O)N[C@@H](CCCCN)C(=O)N[C@@H](CCCCN)C(=O)N[C@@H](CO)C(=O)N[C@@H](CCC(=O)O)C(=O)N[C@@H](CCC(=O)O)C(=O)N[C@@H](CC(=O)O)C(=O)N[C@@H](CCC(N)=O)C(=O)N[C@@H](CCCCN)C(=O)N[C@@H](CCCCN)C(=O)N[C@@H](CC(N)=O)C(=O)N[C@@H](CCC(=O)O)C(=O)N[C@@H](CCC(=O)O)C(=O)N[C@@H](CCC(=O)O)C(=O)N[C@@H](CC(C)C)C(=O)N[C@@H](CCCCN)C(=O)N[C@@H](CCCCN)C(N)=O (Ac-WEEWDKKIEEYTKKIEELIKKSEEDQKKNEEELKK-NH2) | 8.54 | 75.1 | 4.5 |
| CC[C@H](C)[C@H](NC(=O)[C@H](CC(C)C)NC(=O)[C@H](CCC(=O)O)NC(=O)[C@H](CCC(=O)O)NC(=O)[C@@H](NC(=O)[C@H](CCCCN)NC(=O)[C@H](CCCCN)NC(=O)[C@@H](NC(=O)[C@H](Cc1ccc(O)cc1)NC(=O)[C@H](CCC(=O)O)NC(=O)[C@H](CCC(=O)O)NC(=O)[C@@H](NC(=O)[C@H](CCCCN)NC(=O)[C@H](CCCCN)NC(=O)[C@H](CC(=O)O)NC(=O)[C@H](Cc1c[nH]c2ccccc12)NC(=O)[C@H](CCC(=O)O)NC(=O)[C@H](CCC(=O)O)NC(=O)[C@H](Cc1c[nH]c2ccccc12)NC(C)=O)[C@@H](C)CC)[C@@H](C)O)[C@@H](C)CC)C(=O)N[C@@H](CCCCN)C(=O)N[C@@H](CCCCN)C(=O)N[C@@H](CO)C(=O)N[C@@H](CCC(=O)O)C(=O)N[C@@H](CCC(=O)O)C(=O)N[C@@H](Cc1cnc[nH]1)C(=O)N[C@@H](CCC(N)=O)C(=O)N[C@@H](CCCCN)C(=O)N[C@@H](CCCCN)C(=O)N[C@@H](CC(N)=O)C(=O)N[C@@H](CCC(=O)O)C(=O)N[C@@H](CCC(=O)O)C(=O)N[C@@H](CCC(=O)O)C(=O)N[C@@H](CC(C)C)C(=O)N[C@@H](CCCCN)C(=O)N[C@@H](CCCCN)C(N)=O (Ac-WEEWDKKIEEYTKKIEELIKKSEEHQKKNEEELKK-NH2) | 8.70 | 72.6 | 4.3 |
| CC[C@H](C)[C@H](NC(=O)[C@H](CC(C)C)NC(=O)[C@H](CCC(=O)O)NC(=O)[C@H](CCC(=O)O)NC(=O)[C@@H](NC(=O)[C@H](CCCCN)NC(=O)[C@H](CCCCN)NC(=O)[C@@H](NC(=O)[C@H](Cc1ccc(O)cc1)NC(=O)[C@H](CCC(=O)O)NC(=O)[C@H](CCC(=O)O)NC(=O)[C@@H](NC(=O)[C@H](CCCCN)NC(=O)[C@H](CCCCN)NC(=O)[C@H](CC(=O)O)NC(=O)[C@H](Cc1c[nH]c2ccccc12)NC(=O)[C@H](CCC(=O)O)NC(=O)[C@H](CCC(=O)O)NC(=O)[C@H](Cc1c[nH]c2ccccc12)NC(C)=O)[C@@H](C)CC)[C@@H](C)O)[C@@H](C)CC)C(=O)N[C@@H](CCCCN)C(=O)N[C@@H](CCCCN)C(=O)N[C@@H](CO)C(=O)N[C@@H](CCC(=O)O)C(=O)N[C@@H](CCC(=O)O)C(=O)N[C@@H](Cc1ccc(O)cc1)C(=O)N[C@@H](CCC(N)=O)C(=O)N[C@@H](CCCCN)C(=O)N[C@@H](CCCCN)C(=O)N[C@@H](CC(N)=O)C(=O)N[C@@H](CCC(=O)O)C(=O)N[C@@H](CCC(=O)O)C(=O)N[C@@H](CCC(=O)O)C(=O)N[C@@H](CC(C)C)C(=O)N[C@@H](CCCCN)C(=O)N[C@@H](CCCCN)C(N)=O (Ac-WEEWDKKIEEYTKKIEELIKKSEEYQKKNEEELKK-NH2) | 8.66 | 76.3 | 5.5 |
| CC[C@H](C)[C@H](NC(=O)[C@H](CC(C)C)NC(=O)[C@H](CCC(=O)O)NC(=O)[C@H](CCC(=O)O)NC(=O)[C@@H](NC(=O)[C@H](CCCCN)NC(=O)[C@H](CCCCN)NC(=O)[C@@H](NC(=O)[C@H](Cc1ccc(O)cc1)NC(=O)[C@H](CCC(=O)O)NC(=O)[C@H](CCC(=O)O)NC(=O)[C@@H](NC(=O)[C@H](CCCCN)NC(=O)[C@H](CCCCN)NC(=O)[C@H](CC(=O)O)NC(=O)[C@H](Cc1c[nH]c2ccccc12)NC(=O)[C@H](CCC(=O)O)NC(=O)[C@H](CCC(=O)O)NC(=O)[C@H](Cc1c[nH]c2ccccc12)NC(C)=O)[C@@H](C)CC)[C@@H](C)O)[C@@H](C)CC)C(=O)N[C@@H](CCCCN)C(=O)N[C@@H](CCCCN)C(=O)N[C@@H](CO)C(=O)N[C@@H](CCC(=O)O)C(=O)N[C@@H](CCC(=O)O)C(=O)N[C@@H](CC(N)=O)C(=O)N[C@@H](CCC(N)=O)C(=O)N[C@@H](CCCCN)C(=O)N[C@@H](CCCCN)C(=O)N[C@@H](CC(N)=O)C(=O)N[C@@H](CCC(=O)O)C(=O)N[C@@H](CCC(=O)O)C(=O)N[C@@H](CCC(=O)O)C(=O)N[C@@H](CC(C)C)C(=O)N[C@@H](CCCCN)C(=O)N[C@@H](CCCCN)C(N)=O (Ac-WEEWDKKIEEYTKKIEELIKKSEENQKKNEEELKK-NH2) | 8.60 | 73.4 | 4 |
